{"source": "PubChem BioAssay AID588821", "about": "(The Scripps Research Institute Molecular Screening Center, 2011)", "note": "Activity calls are given as the source filed them.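 How the source made its calls: active means IC50 at or below 10 µM; inactive means IC50 above 10 µM.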", "data": [{"tested_on": "HEK293T GAL4DBD-only luciferase reporter, luminescence counterscreen", "experiment": "compounds suppressing UAS/Gal4-driven luciferase signal – cell-based, luminescence, HEK293T, empty GAL4DBD, dose response, counter-screen for DAX1 inhibitor project, late-stage follow-up (AID 588821)", "values": [{"smiles": "COc1ccc(OC)c(C(C)NC(=O)c2ccccc2C)c1", "note": "(centres undefined)", "IC50": "> 69.5 µM (inactive)"}, {"smiles": "O=C(Nc1ccc2c(c1)OCO2)c1ccc(C2SCC(=O)N2Cc2ccccc2)cc1", "note": "(centres undefined)", "IC50": "> 69.5 µM (inactive)"}, {"smiles": "COc1ccc(OC)c(C(C)NC(=O)c2ccc(Cl)cc2)c1", "note": "(centres undefined)", "IC50": "> 69.5 µM (inactive)"}, {"smiles": "O=C(Nc1ccc2c(c1)OCO2)c1cccs1", "IC50": "> 69.5 µM (inactive)"}, {"smiles": "COc1cccc(C(=O)NC(C)c2cc(OC)ccc2OC)c1", "note": "(centres undefined)", "IC50": "> 69.5 µM (inactive)"}, {"smiles": "COc1ccc(OC)c(C(C)NC(=O)c2ccc3c(c2)OCCO3)c1", "note": "(centres undefined)", "IC50": "> 69.5 µM (inactive)"}, {"smiles": "COc1ccc(OC)c(C(C)NC(=O)c2cccc(C)c2)c1", "note": "(centres undefined)", "IC50": "> 69.5 µM (inactive)"}, {"smiles": "Cn1c(=O)n(C)c2cc(C(=O)Nc3ccc4c(c3)OCO4)ccc21", "IC50": "> 69.5 µM (inactive)"}, {"smiles": "COc1ccc(OC)c(C(C)NC(=O)c2cccc(F)c2)c1", "note": "(centres undefined)", "IC50": "> 69.5 µM (inactive)"}, {"smiles": "COc1ccc(OC)c(C(C)NC(=O)c2ccc(C(C)(C)C)cc2)c1", "note": "(centres undefined)", "IC50": "> 69.5 µM (inactive)"}, {"smiles": "Cc1occc1C(=O)Nc1ccc2c(c1)OCO2", "IC50": "> 69.5 µM (inactive)"}, {"smiles": "COc1ccc(OC)c(C(C)NC(=O)c2ccccc2)c1", "note": "(centres undefined)", "IC50": "> 69.5 µM (inactive)"}, {"smiles": "COc1ccc(OC)c(C(C)NC(=O)c2ccc(F)cc2)c1", "note": "(centres undefined)", "IC50": "> 69.5 µM (inactive)"}, {"smiles": "COc1ccc(OC)c(C(C)NC(=O)c2ccccc2F)c1", "note": "(centres undefined)", "IC50": "> 69.5 µM (inactive)"}, {"smiles": "Cn1c(=O)n(C)c2cc(C(=O)Nc3ccc4c(c3)OCCO4)ccc21", "IC50": "> 69.5 µM (inactive)"}, {"smiles": "COc1ccc(OC)c(C(C)NC(=O)c2cccc3ccccc23)c1", "note": "(centres undefined)", "IC50": "> 69.5 µM (inactive)"}, {"smiles": "O=C(Cc1cccs1)Nc1ccc2c(c1)OCO2", "IC50": "> 69.5 µM (inactive)"}, {"smiles": "COc1ccc(OC)c(C(C)NC(=O)c2c(F)cccc2Cl)c1", "note": "(centres undefined)", "IC50": "> 69.5 µM (inactive)"}, {"smiles": "CSc1ccccc1C(=O)Nc1ccc2c(c1)OCCO2", "IC50": "> 69.5 µM (inactive)"}, {"smiles": "O=C(Nc1ccc2c(c1)OCO2)c1ccc(C2SCC(=O)N2Cc2ccco2)cc1", "note": "(centres undefined)", "IC50": "> 69.5 µM (inactive)"}, {"smiles": "COc1ccc(OC)c(C(C)NC(=O)c2ccccc2Cl)c1", "note": "(centres undefined)", "IC50": "> 69.5 µM (inactive)"}, {"smiles": "COc1ccc(OC)c(C(C)NC(=O)c2ccc(C)cc2)c1", "note": "(centres undefined)", "IC50": "> 69.5 µM (inactive)"}, {"smiles": "CSc1ccccc1C(=O)Nc1ccc2c(c1)OCO2", "IC50": "> 69.5 µM (inactive)"}, {"smiles": "O=C(Nc1ccc2c(c1)OCO2)c1ccc2ccccc2c1", "IC50": "0.202 µM"}]}]}
